Test results taken from patent US20240101563A1, “NOVEL COMPOUNDS” (AC Immune SA, priority 2022, published 2024).
pIC50: −log10 of the molar value. Read-outs that look alike come from different tables or passages of the source.

Tested on: NLRP3 inflammasome pathway
Experiment: NLRP3 inflammasome pathway activation assay, MSU stimulation, IL-1β HTRF
Format: cell-based
Details: Homo sapiens, 3 h, read-out: IC50 Human monocyte-like cells MSU
How it was run: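 Human monocyte-like cells differentiated overnight with 10 ng/mL PMA, primed 3 h with 10 ng/mL LPS, given compound ([…]) 30 min before 3 h stimulation with Nigericin 3.75 μM or MSU 200 μg/mL. Supernatant IL-1β quantified by HTRF; IC50 at 50% inhibition.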

[1] = Table 7, PMA-differentiated, LPS-primed cells, MSU 200 μg/mL for 3 h, IL-1β release

| pIC50 [1] | Structure (SMILES) | pIC50 |
| --- | --- | --- |
| > 7.00 | Cc1cc(C(F)(F)F)cc(O)c1-c1nc2nc(N3CCC(O)CC3)cnc2n1C [Example 63, 1-(2-(2-hydroxy-6-methyl-4-(trifluoromethyl)phenyl)-1-methyl-1H-imidazo[4,5-b]pyrazin-5-yl)piperidin-4-ol] | – |
| 6.00 to 7.00 | Cc1cc(Cl)cc(O)c1-c1nc2nc(N3CCOCC3)c(F)cc2n1C [Example 64, 5-chloro-2-(6-fluoro-1-methyl-5-morpholino-1H-imidazo[4,5-b]pyridin-2-yl)-3-methylphenol] | – |
| > 7.00 | COc1nc2nc(-c3c(C)cc(C(F)(F)F)cc3O)n(C)c2nc1CO [Example 65, 2-(6-(hydroxymethyl)-5-methoxy-1-methyl-1H-imidazo[4,5-b]pyrazin-2-yl)-3-methyl-5-(trifluoromethyl)phenol] | – |
| > 7.00 | Cc1cc(Cl)cc(O)c1-c1nc2nc(N3CCOCC3)cnc2n1C [Example 66, 5-chloro-3-methyl-2-(1-methyl-5-morpholino-imidazo[4,5-b]pyrazin-2-yl)phenol] | – |
| > 7.00 | Cc1cc(C(F)(F)F)cc(O)c1-c1nc2nc(N(C)C)c(CO)cc2n1C [Example 67, 2-[5-(dimethylamino)-6-(hydroxymethyl)-1-methyl-imidazo[4,5-b]pyridin-2-yl]-3-methyl-5-(trifluoromethyl)phenol] | – |
| 6.00 to 7.00 | Cc1cc(C(F)(F)F)cc(O)c1-c1nc2nc(N3CCN(C)CC3)cnc2n1C [Example 68, 3-methyl-2-(1-methyl-5-(4-methylpiperazin-1-yl)-1H-imidazo[4,5-b]pyrazin-2-yl)-5-(trifluoromethyl)phenol] | – |
| 6.00 to 7.00 | Cc1cc(Cl)cc(O)c1-c1nc2nc(N3CCN(C)CC3)cnc2n1C [Example 69, 5-chloro-3-methyl-2-(1-methyl-5-(4-methylpiperazin-1-yl)-1H-imidazo[4,5-b]pyrazin-2-yl)phenol] | – |
| > 7.00 | COc1nc2nc(-c3c(C)cc(Cl)cc3O)n(C)c2cc1CO [Example 70, 5-chloro-2-[6-(hydroxymethyl)-5-methoxy-1-methyl-imidazo[4,5-b]pyridin-2-yl]-3-methyl-Phenol] | – |
| 6.00 to 7.00 | Cc1cc(C(F)(F)F)cc(O)c1-c1nc2nc(N3CC(N(C)C)C3)cnc2n1C [Example 71, 2-(5-(3-(dimethylamino)azetidin-1-yl)-1-methyl-1H-imidazo[4,5-b]pyrazin-2-yl)-3-methyl-5-(trifluoromethyl)phenol] | – |
| > 7.00 | COc1nc2c(nc1N[C@@H]1CCN(C)C1)nc(-c1c(C)cc(C(F)(F)F)cc1O)n2C [Example 72, (R)-2-(6-methoxy-1-methyl-5-((1-methylpyrrolidin-3-yl)amino)-1H-imidazo[4,5-b]pyrazin-2-yl)-3-methyl-5-(trifluoromethyl)phenol] | – |
| 6.00 to 7.00 | Cc1cc(Cl)cc(O)c1-c1nc2nc(N3CCOCC3)cnc2[nH]1 [Example 73, 5-chloro-3-methyl-2-(5-morpholino-1H-imidazo[4,5-b]pyrazin-2-yl)phenol] | – |
| > 7.00 | Cc1cc(F)cc(O)c1-c1nc2nc(N(C)[C@@H]3CCN(C)C3)cnc2n1C [Example 74, (R)-5-fluoro-3-methyl-2-(1-methyl-5-(methyl(1-methylpyrrolidin-3-yl)amino)-1H-imidazo[4,5-b]pyrazin-2-yl)phenol] | – |
| – | Cc1cc(C(F)(F)F)cc(O)c1-c1nc2nc(N3CCC(C)(O)CC3)cnc2n1C [Example 75, 1-[2-[2-hydroxy-6-methyl-4-(trifluoromethyl)phenyl]-1-methyl-imidazo[4,5-b]pyrazin-5-yl]-4-methyl-piperidin-4-ol] | 6.00 to 7.00 |
| > 7.00 | Cc1cc(Cl)cc(O)c1-c1nc2nc(N3CCC(O)CC3)cnc2n1C [Example 78, 1-[2-(4-chloro-2-hydroxy-6-methyl-phenyl)-1-methyl-imidazo[4,5-b]pyrazine-5-yl]piperidin-4-ol] | – |
| > 7.00 | Cc1cc(C(F)(F)F)cc(O)c1-c1nc2nc(N3CCOCC3)ccc2n1C [Example 79, 3-methyl-2-(1-methyl-5-morpholino-imidazo[4,5-b]pyridin-2-yl)-5-(trifluoromethyl)phenol] | – |
